{"source": "patent US20220218738A1", "about": "“POTASSIUM-BINDING AGENTS FOR USE IN HEMODIALYSIS PATIENTS” (AstraZeneca AB, priority 2019, published 2022)", "system": "hyperkalemia in patients on hemodialysis", "experiment": "Phase 3b randomized, double-blind, placebo-controlled study to reduce incidence of pre-dialysis hyperkalemia with SZC", "parameters": "species or system human", "settings": "in vivo", "protocol": "A Phase 3b, Multicenter, Prospective, Randomized, Double Blind, Placebocontrolled Study to Reduce Incidence of Pre-Dialysis Hyperkalemia with Sodium Zirconium Cyclosilicate (SZC) The study was carried out to evaluate the efficacy of Sodium Zirconium Cyclosilicate in the treatment of hyperkalemia in patients on hemodialysis. The study was designed to include approximately 180 patients with ESRD receiving maintenance hemodialysis treatments three times per week with an indication for treatment of hyperkalemia (FIG. 1). The study is a randomized, double-blind study with two treatment groups, SZC or placebo, and includes hemodialysis patients that have been on dialysis for a minimum of three months and receive treatment three times a week. Patients must have hemodialysis access consisting of an arteriovenous fistula, AV graft, or tunneled (permanent) catheter which is expected to remain in place for the entire duration of the study (FIG. 2).\nThe starting dose of SZC will be 5 g once daily on non-dialysis day and may be adjusted to a maximum of 15 g per non-dialysis day to maintain a pre-dialysis S-K between 4-5 mmol/L. SZC or placebo will be administered orally on non-dialysis days for a treatment period of eight weeks. Patients will be randomized (1:1) to double-blind treatment with either SZC or placebo, started at 5 g once daily on non-dialysis days, and titrated during a period of four weeks to achieve and maintain a pre-dialysis serum potassium between 4 and 5 mmol/L after the Long Inter-Dialytic Interval (LIDI). Maximum SZC dose is 15 g once daily on non-dialysis days. Treatment will be continued unchanged for an additional four week evaluation period to complete a total of 8 weeks. The primary benefit for patients randomized to SZC is expected to be the maintenance of normokalemia during the long interdialytic interval, potentially including the relief of associated signs and symptoms and an improved quality of life.\nFor inclusion in the study patients should fulfil the following criteria: 1. Provision of informed consent prior to any study specific procedures. 2. Female or male aged >18 years at screening Visit 1. For patients aged <20 years and enrolled in Japan, a written informed consent should be obtained from the patient and his or her legally acceptable representative. 3. Receiving hemodialysis (or hemodiafiltration) three times a week for treatment of endstage renal disease (ESRD) for at least three months before randomization. 4. […]\nPatients should not enter the study if any of the following exclusion criteria are fulfilled: 1. […] Hemoglobin <9 g/dL on screening (as assessed on Visit 1). […]"}
{"substance": "Sodium Zirconium Cyclosilicate [SZC]", "values": [{"measurement": "number of patients with adverse events", "value": 40}, {"measurement": "number of patients with serious adverse event", "value": 7}, {"measurement": "overall safety", "value": "no safety concerns"}, {"measurement": "patients with pre-dialysis hypokalemia (serum K<3.5 mmol/L)", "value": "five"}]}
